# Experimental data from patent publication US4798892A, “2-hydroxypropylamine heteroaryl ester derivatives” (priority 1986, dated 1989).
# Where a name gives a salt, the structure may show the parent alone.
# Tests used:
# [1] = Enzymatic hydrolysis of beta blockers by dog blood (procedure C); assay type: in vitro ADME; conditions: dog, blood, 37° C.; for remaining at 1 h: read-out: Percent drug remaining, dog blood, 1 HR; for remaining at 2 h: read-out: Percent drug remaining, dog blood, 2 HR
# Method: (§1) Chemicals--Acetonitrile was "HPLC" grade. Distilled water was used to dissolve the compounds and 0.01N HCl was used to dissolve compounds requiring an acidic pH for dissolution.
# (§2) Enzyme Source--Fresh aqueous humor was collected from eyes of dogs using a 23-gauge needle while fresh dog blood was collected into heparinized Vacutainer tubes. Fresh liver was homogenized in 0.9% NaCl using a Potter-Elvehjem Teflon pestle and glass homogenizer making a 25% (W/V) homogenate.
# (§3) Incubation Condition--A 0.5 ml aliquot of dog aqueous humor, blood or liver homogenate was incubated with 12.5 μg (0.5 ml) of beta blocker in a Dubnoff shaking metabolic incubator at 37° C. for 60 and 120 min. Denatured tissue controls were prepared by adding 2.0 ml of acetonitrile into 0.5 ml of aqueous humor, blood or liver homogenate to destroy esterase activities prior to addition of the beta blockers. The controls were then incubated at 37° C. for 120 min. After 60 and 120 min, the incubations were terminated by addition of 2 ml of acetonitrile and immediately mixed by a Vortex® to stop esterase activities.
# (§4) Sample Processing and Data Analyses--All samples were centrifuged at 4000 RPM for 10 min to sediment denatured proteins. The resultant supernatants were transferred to WISP® vials and analyzed using an HPLC assay developed for beta blockers. The hydrolysis of beta blockers by aqueous humor, blood and liver homogenate was determined by disappearance of the compounds. The extent of enzymatic hydrolysis by each tissue was determined by comparing the amount of each compound (absolute peak area) recovered at each time point to the amount of each compound (absolute peak area) in denatured tissue control and aqueous control samples. The results of these experiments are shown in Tabe III.
# [2] = test system: beta adrenergic receptor (guinea pig trachea vs right atria); test: Degree of cardioselectivity in vitro, KB trachea/KB atria; conditions: Table I; ratio greater than one indicates cardioselectivity
# Method: Each tissue was suspended between a fixed glass rod and a Statham Universal Transducer connected to a Beckman recorder. Atria were allowed to beat spontaneously under a loading tension of approximately 0.5 gm. Intrinsic depressant or stimulant activity was determined for each compound by progressively increasing concentrations in the tissue baths at 60-minute intervals. Tissues were not washed between increments. The maximum concentration showing little or no cardiodepressant activity was chosen for blockade experiments. Changes in rate in response to isoproterenol, a standard β-receptor agonist, were measured in the absence and presence of test compounds. Spiral strips of guinea pig trachea were suspended under 5 gm resting tension and incubated with phentolamine, tropolone and cocaine. Active tension was generated by addition of carbachol (3.0×10^-7 M) and decreases in tension in response to isoproterenol were quantitated. Cumulative concentration-response curves were produced with isoproterenol both before and after 60-minute incubation of test compounds with atria and trachea. […] The blocking potency of test compounds was estimated by computing pA2 values (-log […]) by the method of Furchgott, the Pharmacological Differentiation of Adrenergie Receptors, Ann. […] The degree of cardioselectivity was estimated from the ratio, KB trachea/KB atria (10^(pA.sbsp.2^atria-pA.sbsp.2^trachea)). A ratio greater than one indicates cardioselectivity. Test drugs were dissolved in distilled water and added to the bath (30 ml) in a volume of 10 or 100 μl.
# [3] = Enzymatic hydrolysis of beta blockers by dog liver homogenate (procedure C); assay type: in vitro ADME; conditions: dog, liver homogenate, 37° C.; for remaining at 1 h: read-out: Percent drug remaining, dog liver homogenate, 1 HR; for remaining at 2 h: read-out: Percent drug remaining, dog liver homogenate, 2 HR
# Method: as §1, §2, §3, §4
# [4] = target: T1, beta adrenergic receptor (guinea pig right atria) (Cavia porcellus, UniProt H0W3H1); test: Beta-blocking activity in vitro, guinea pig right atria (blockade of isoproterenol rate response); conditions: Table I; guinea pig right atria, isoproterenol agonist, 60-minute incubation, 37° C.; read-out: PA2 Rt. Atria (converted)
# T1 construct: guinea pig right atria and guinea pig tracheal strips mounted in a tissue bath; from tissue; host or cells: guinea pig right atria, spontaneously beating
# T1 sequence (H0W3H1 1-470): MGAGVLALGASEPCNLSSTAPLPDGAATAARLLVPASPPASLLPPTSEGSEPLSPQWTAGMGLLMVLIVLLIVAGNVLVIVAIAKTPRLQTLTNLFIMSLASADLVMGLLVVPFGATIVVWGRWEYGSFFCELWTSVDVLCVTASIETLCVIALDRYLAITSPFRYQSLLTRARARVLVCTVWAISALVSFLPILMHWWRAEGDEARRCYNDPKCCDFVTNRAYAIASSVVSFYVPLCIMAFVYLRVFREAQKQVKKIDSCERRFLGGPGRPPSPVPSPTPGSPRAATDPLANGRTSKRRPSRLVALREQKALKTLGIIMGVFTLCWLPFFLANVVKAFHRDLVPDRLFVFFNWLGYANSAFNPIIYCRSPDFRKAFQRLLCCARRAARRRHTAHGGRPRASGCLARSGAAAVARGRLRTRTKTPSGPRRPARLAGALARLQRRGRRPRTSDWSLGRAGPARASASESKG
# [5] = Enzymatic hydrolysis of beta blockers by dog aqueous humor (procedure C); assay type: in vitro ADME; conditions: for remaining at 1 h / remaining at 2 h: 37° C.; for remaining at 1 h: read-out: Percent drug remaining, dog aqueous humor, 1 HR; for remaining at 2 h: read-out: Percent drug remaining, dog aqueous humor, 2 HR; for half-life: approximate value determined by procedure C, read-out: T1/2 dog aqueous humor
# Method: as §1, §2, §3, §4
# [6] = Half-lives of beta blockers in dog whole blood (procedure D); assay type: in vitro ADME; conditions: 37° C., read-out: T1/2 dog blood
# Method: (§5) The rate of disappearance of a compound is expressed as the half-life (T1/2), which is the time period in which one half of the initial amount of compound tested disappears. In each experiment, 1 ml of a solution containing 50 μg of the test compound was added to 1 ml of whole blood or 1 ml of a 33% (w/v) liver homogenate. The samples were incubated in a Dubnoff shaking metabolic incubator for 2.5, 5.0, 10.0, 20.0, 30.0 and 60.0 minutes at 37° C. At the designated time periods, the test mixtures were removed from the incubator and transferred to a 0° C. ice bath. Acetonitrile (2 ml) was immediately added and the mixtures were mixed to stop enzymatic hydrolysis. Zero time samples were prepared by adding 2 ml of acetonitrile to denature the proteins prior to addition of the test compounds. After centrifugation to sediment denatured proteins, 2 ml of the supernatant was removed and analyzed by high pressure liquid chromatography, using a mobile phase of 60% acetonitrile/40% 0.05 m sodium phosphate buffer (pH 6.6), a U.V. detector and Waters u Bondapak Phenyl column. The half life of each test compound was determined graphically by plotting the decrease in concentrations as a function of time.
# [7] = test system: beta adrenergic receptor (heart rate response to isoproterenol); test: Duration and potency of beta-blocking action in vivo, 3-hour infusion in pentobarbital-anesthetized dogs; design: species or system dog; conditions: for Recovery Time 50% / Recovery Time 80% / Potency / % I (Percent inhibition of heart rate response to isoproterenol): Table II; for Recovery Time 50% / Recovery Time 80%: after termination of 3-hour infusion; for Potency: infusion rate adjusted so isoproterenol inhibition averaged about 50% at end of 3-hour infusion; for % I (Percent inhibition of heart rate response to isoproterenol): isoproterenol 0.5 μg/kg bolus, 3-hour infusion
# Method: The duration of β-blockade was determined in vivo using pentobarbital-anesthetized dogs instrumented for measurement of heart rate using a Beckman cardiotachometer triggered electronically by a phasic aortic blood pressure signal. Both vagus nerves were severed in the cervical region and the animals were mechanically ventilated. The experimental design used employed a 3-hour infusion of test compound. Bolus doses of isoproterenol (0.5 μg/kg) were used to assess the degree of β-blockade and recovery from β-blockade after […] of the infusion. The doses were spaced at 10-minute intervals and were given before, during and following the infusion of test compounds. The infusion rate was adjusted so that at the end of the 3-hour infusion period the degree of isoproterenol inhibition averaged about 50% of control. Following termination of blocker infusion, percent recovery from β-blockade was computed and the time associated with 80% recovery estimated.
# [8] = Half-lives of beta blockers in dog liver homogenate (procedure D); assay type: in vitro ADME; conditions: 33% (w/v) homogenate, 37° C., read-out: T1/2 dog liver homogenate
# Method: as §5
# [9] = Physician's Desk Reference, 35th Edition, 1981, p. 1233; cited from earlier work
SMILES,Cardioselectivity KB (Trachea)/KB (Atria) [2],Kb [4] [nM],"metabolised at 1 h ([5]; one hour, read-out: hydrolyzed in aqueous humor after one hour) [%]","metabolised at 2 h ([5]; two hours, read-out: hydrolyzed in aqueous humor after two hours) [%]",remaining at 1 h [1] [%],remaining at 2 h [1] [%],remaining at 1 h [3] [%],remaining at 2 h [3] [%],remaining at 1 h [5] [%],remaining at 2 h [5] [%],half-life [5] [min],half-life [6] [min],Recovery Time 50% [7] [min],Recovery Time 80% [7] [min],Potency [7] [mg/kg/180 min],% I (Percent inhibition of heart rate response to isoproterenol) [7] [%],half-life [8] [min],experiments did not recover to 80% within 60 min ([7]; Table II footnote c),adverse reactions to topical use [9]
"CCOC(=O)NCC(C)(C)NCC(O)COC(=O)c1ccccc1F (stereo not drawn) [IX, 3-[1,1-Dimethyl-2-(ethoxycarbonylamino)]ethylamino-2-hydroxypropyl 2-Fluorobenzoate Hydrochloride]",,79.4,,,0,0,0,0,0,0,,8,3 ± 1,8 ± 3,6.5 ± 1.8,49 ± 4,1,,
"CC(C)C(=O)NCC(C)(C)NCC(O)COC(=O)c1ccccc1F (stereo not drawn) [Example V, 3-[1,1-Dimethyl-2-(isopropylcarbonylamino)]ethylamino-2-hydroxypropyl 2-Fluorobenzoate Oxalate Monohydrate]",,158,,,12,8,0,0,75,49,~120,20,10 ± 2,22 ± 6,0.6,62 ± 5,3.5,2/6,
"CC(C)(CNC(=O)N1CCOCC1)NCC(O)COC(=O)c1cc(O)cc(O)c1 (stereo not drawn) [XXXVIII, 3-[1,1-Dimethyl-2-(1-morpholinocarbonylamino)]ethylamino-2-hydroxypropyl 3,5-Dihydroxybenzoate Oxalate Hemihydrate]",1,1,,,,,,,,,,,,,,,,,
CC(C)(C)NC[C@H](O)COc1nsnc1N1CCOCC1 [timolol maleate],,,,,,,,,,,,,,,,,,,"bronchospasm and heart failure, as well as cardiac conduction defects"

# More lines, main results first:
Cardioselectivity KB (Trachea)/KB (Atria) [2],Kb [4] [nM],"metabolised at 1 h ([5]; one hour, read-out: hydrolyzed in aqueous humor after one hour) [%]","metabolised at 2 h ([5]; two hours, read-out: hydrolyzed in aqueous humor after two hours) [%]",SMILES,remaining at 1 h [1] [%],remaining at 2 h [1] [%],remaining at 1 h [3] [%],remaining at 2 h [3] [%],remaining at 1 h [5] [%],remaining at 2 h [5] [%],half-life [5] [min],half-life [6] [min],Recovery Time 50% [7] [min],Recovery Time 80% [7] [min],Potency [7] [mg/kg/180 min],% I (Percent inhibition of heart rate response to isoproterenol) [7] [%],half-life [8] [min],experiments did not recover to 80% within 60 min ([7]; Table II footnote c),adverse reactions to topical use [9]
2,3.16,42,68,"CC(C)(CNC(=O)N1CCOCC1)NCC(O)COC(=O)c1ccccc1F (stereo not drawn) [Example II, 3-[1,1-Dimethyl-2-(1-morpholinocarbonylamino)]ethylamino-2-hydroxypropyl 2-Fluorobenzoate Hydrochloride]",0,0,0,0,58,32,60 to 120,15,,,,,,,
5,79.4,,,"CC(C)(CNC(=O)Nc1ccccc1)NCC(O)COC(=O)c1ccccc1F (stereo not drawn) [XII, 3-[1,1-Dimethyl-2-(phenylaminocarbonylamino)]ethylamino-2-hydroxypropyl 2-Fluorobenzoate]",,,,,,,,,,,,,,,
